From patent US20230058189A1, “QUINOLIN-4-ONE AND 4(1H)-CINNOLINONE COMPOUNDS AND METHODS OF USING SAME” (Frequency Therapeutics, Inc., priority 2019, published 2023)

Tests used:
Assay type in all cases: biochemical
GSK3α = GSK3α (Homo sapiens, UniProt P49840); experiment: GSK3α in vitro enzymatic assay (Kinase-Glo Max luminescence); conditions: recombinant human GSK3, 10 μM ATP; approximate values; read-out: Potency GSK3alpha
In short: (§1)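 Recombinant human enzyme was run for 40 min at 30 °C in Tris pH 7.4 with 0.1 mg/ml GSK tide substrate, 10 uM ATP and 1% DMSO final, in duplicate. Remaining ATP was read by Kinase-Glo Max luminescence. IC50 came from a sigmoidal fit of percent activity.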

LSD2 = target: T1, LSD2 (Homo sapiens, UniProt Q8NB78); experiment: LSD2 A-screen (AlphaScreen) demethylase enzymatic assay; conditions: 50 μM compound; approximate values; read-out: Potency LSD-2 % Inhibition at 50 μM
T1 sequence (Q8NB78 1-822): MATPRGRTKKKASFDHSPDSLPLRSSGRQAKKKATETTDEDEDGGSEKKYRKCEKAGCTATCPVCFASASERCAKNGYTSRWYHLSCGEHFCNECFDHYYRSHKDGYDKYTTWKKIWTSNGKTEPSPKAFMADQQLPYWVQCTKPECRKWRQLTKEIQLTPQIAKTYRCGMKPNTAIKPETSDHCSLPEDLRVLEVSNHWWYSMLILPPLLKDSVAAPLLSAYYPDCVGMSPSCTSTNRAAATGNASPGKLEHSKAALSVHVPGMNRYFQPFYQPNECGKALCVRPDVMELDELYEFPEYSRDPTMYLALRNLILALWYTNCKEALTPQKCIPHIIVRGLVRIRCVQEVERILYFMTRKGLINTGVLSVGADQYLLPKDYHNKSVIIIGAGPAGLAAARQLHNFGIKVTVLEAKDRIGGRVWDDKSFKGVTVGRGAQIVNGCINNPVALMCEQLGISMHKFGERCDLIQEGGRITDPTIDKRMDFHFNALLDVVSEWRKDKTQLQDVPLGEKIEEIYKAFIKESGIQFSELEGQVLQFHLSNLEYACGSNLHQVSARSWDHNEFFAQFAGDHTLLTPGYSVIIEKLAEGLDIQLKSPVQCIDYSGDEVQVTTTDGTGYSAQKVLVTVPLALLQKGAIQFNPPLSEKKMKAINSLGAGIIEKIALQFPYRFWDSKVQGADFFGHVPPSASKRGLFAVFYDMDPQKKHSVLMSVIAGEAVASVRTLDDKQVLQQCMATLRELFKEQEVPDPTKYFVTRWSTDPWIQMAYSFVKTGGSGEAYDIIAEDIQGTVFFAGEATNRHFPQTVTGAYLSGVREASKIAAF
In short: (§2)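 Recombinant human demethylase was preincubated 30 min with compound, then reacted with histone H3 peptide substrate for 60 min at room temperature (1% DMSO, duplicates). Product was detected by AlphaScreen with primary antibody, acceptor and streptavidin donor beads. No-enzyme and no-compound wells set 0% and 100% activity; IC50 came from sigmoidal dose-response fits.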

LSD-1 = LSD-1 (Homo sapiens, UniProt O60341); experiment: LSD-1 A-screen (AlphaScreen) demethylase enzymatic assay; conditions: 50 μM compound; approximate values; read-out: Potency LSD-1 % Inhibition at 50 μM
In short: as §2

GSK3β = GSK3β (Homo sapiens, UniProt P49841); experiment: GSK3β in vitro enzymatic assay (Kinase-Glo Max luminescence); conditions: recombinant human GSK3, 10 μM ATP; approximate values; read-out: Potency GSK3beta
Sequence of GSK3β (P49841 whole entry): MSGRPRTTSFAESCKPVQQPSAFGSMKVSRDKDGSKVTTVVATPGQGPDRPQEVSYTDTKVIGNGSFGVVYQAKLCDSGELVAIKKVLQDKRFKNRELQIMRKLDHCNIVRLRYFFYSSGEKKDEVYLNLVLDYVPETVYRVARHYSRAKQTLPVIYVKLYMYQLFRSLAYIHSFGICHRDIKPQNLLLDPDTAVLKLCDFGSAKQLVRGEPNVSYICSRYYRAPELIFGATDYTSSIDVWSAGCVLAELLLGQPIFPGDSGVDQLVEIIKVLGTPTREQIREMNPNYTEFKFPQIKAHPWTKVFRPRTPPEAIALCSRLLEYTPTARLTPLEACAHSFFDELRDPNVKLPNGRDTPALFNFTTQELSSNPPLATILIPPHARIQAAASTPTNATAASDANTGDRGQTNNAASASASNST
In short: as §1

Sequence of GSK3α (P49840 whole entry): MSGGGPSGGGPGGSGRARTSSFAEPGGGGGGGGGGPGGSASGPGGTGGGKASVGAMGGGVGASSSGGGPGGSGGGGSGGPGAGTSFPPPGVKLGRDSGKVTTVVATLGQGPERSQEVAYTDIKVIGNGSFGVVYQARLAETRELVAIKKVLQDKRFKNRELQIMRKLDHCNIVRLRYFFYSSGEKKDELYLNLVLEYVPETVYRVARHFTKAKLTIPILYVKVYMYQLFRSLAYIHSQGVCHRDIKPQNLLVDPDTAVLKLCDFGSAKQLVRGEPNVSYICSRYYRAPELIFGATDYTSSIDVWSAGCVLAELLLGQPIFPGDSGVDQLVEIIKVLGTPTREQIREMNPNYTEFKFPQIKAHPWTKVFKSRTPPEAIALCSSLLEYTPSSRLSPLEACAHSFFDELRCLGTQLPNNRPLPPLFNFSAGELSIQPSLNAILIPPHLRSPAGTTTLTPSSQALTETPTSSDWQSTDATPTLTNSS

IC50 (GSK3α): 713 nM
inhibition at 50 µM (LSD2): 1%
inhibition at 50 µM (LSD-1): 10%
IC50 (GSK3β): 452 nM
Compound: CCn1cc(C(=O)O)c(=O)c2c(N)c(F)c(NC3CCOCC3)cc21 [Compound I-8]
